Experimental data published in patent US20240391895A1, “PYRIDAZINE-CONTAINING COMPOUND AND MEDICINAL USE THEREOF” (Tuojie Biotech (Shanghai) Co., Ltd., priority 2020, published 2024).

Target: T1, NLRP3 inflammasome (Homo sapiens, UniProt Q96P20)
T1 construct: Monocytes were then isolated from the PBMCs using a human pan-monocyte isolation kit; endogenous in cells; host or cells: primary human monocytes isolated from PBMCs of human blood
Assay: Inhibitory activity against NLRP3 inflammasome in human monocytes (IL-1b ELISA)
Type: cell-based
Settings: human monocytes from PBMCs; compound 0.5 h, LPS 100 ng/mL 3.5 h, ATP 5 mM 45 min; IL-1b in supernatant by ELISA; (n = 2) cells are means of n tests; read-out: IL-1β inhibition (EC50)/nM
Method: Assays for Inhibitory Activity Against NLRP3 Inflammasome in Human Monocytes
Day 1: PBMCs were separated from human blood by density gradient centrifugation and washed twice with PBS containing 2% FBS (centrifuged at 300 g for 8 min). Monocytes were then isolated from the PBMCs using a human pan-monocyte isolation kit and an LS column. The cells were stained with CD14-FITC at 4° C. for 30 min, and FACS was run on BD FACS Verse to analyze the purity of the pan-monocytes. The cells were counted, and the cell density was adjusted to 2.5×10^5 cells/mL. The cells were seeded into a 96-well plate at 2.5×10^4 monocytes/[…] suspension/well. The plate was incubated overnight at 37° C. in 5% CO2.
Day 2: Test compounds were pre-titrated so that all titration points, including the DMSO control well, contained 0.1% DMSO. […] At the end of the 3.5 hours' incubation, the cells were stimulated (by adding […] of 40 mM ATP (the final concentration would be 5 mM) to treat the cells for 45 min). […] of supernatant was transferred to a new plate and stored at […]
Day 3: The supernatant solution was 20-fold diluted for human monocyte IL-1b ELISA according to the manufacturer's instructions.
Days 3-4: ELISA experiment • 1) Day 3: A capture antibody (diluted with coating buffer) was added to the plate at […]. The plate was sealed and incubated overnight at 4° C. • 2) Day 4: The liquids in the wells were pipetted off, and the plate was washed 3 times with wash buffer, 300 μL/≥each time. After the last wash, the plate was inverted and blotted dry with absorbent paper to remove any residual buffer.
3) A test dilution was added to the plate at ≥200 μL/well. The plate was incubated at room temperature for 1 h. • 4) The plate was blotted dry/washed as in step 2. • 5) Standard and sample dilutions were prepared with the test dilution. • 6) Each standard, sample and control was added to a corresponding well at […]. The plate was sealed and incubated at room temperature for 2 h. • 7) The plate was blotted dry/washed as in step 2, except that it was washed 5 times. • 8) The assay antibody was diluted with the test dilution and added to wells at […]/well. • 9) The plate was sealed and incubated at room temperature for 1 h. • 10) The plate was blotted dry/washed as in step 2, except that it was washed 5 times. • 11) The enzyme reagent was diluted with the test dilution and added to wells at […]/well. The plate was sealed and incubated at room temperature for 30 min. • 12) The plate was blotted dry/washed, and the step of soaking for 30 s-1 min was used. The plate was washed 7 times in total. • 13) A substrate solution was added at […]/well. The plate (without plate sealant) was incubated at room temperature in the dark for 30 min. • 14) A stop solution was added at […]. • 15) The absorbance at 450 nm was read using the instrument Envision within 30 min of stopping the reaction. If a wavelength correction was available, the absorbance at 570 nm would be subtracted from the absorbance at 450 nm.

T1 sequence (Q96P20 whole entry): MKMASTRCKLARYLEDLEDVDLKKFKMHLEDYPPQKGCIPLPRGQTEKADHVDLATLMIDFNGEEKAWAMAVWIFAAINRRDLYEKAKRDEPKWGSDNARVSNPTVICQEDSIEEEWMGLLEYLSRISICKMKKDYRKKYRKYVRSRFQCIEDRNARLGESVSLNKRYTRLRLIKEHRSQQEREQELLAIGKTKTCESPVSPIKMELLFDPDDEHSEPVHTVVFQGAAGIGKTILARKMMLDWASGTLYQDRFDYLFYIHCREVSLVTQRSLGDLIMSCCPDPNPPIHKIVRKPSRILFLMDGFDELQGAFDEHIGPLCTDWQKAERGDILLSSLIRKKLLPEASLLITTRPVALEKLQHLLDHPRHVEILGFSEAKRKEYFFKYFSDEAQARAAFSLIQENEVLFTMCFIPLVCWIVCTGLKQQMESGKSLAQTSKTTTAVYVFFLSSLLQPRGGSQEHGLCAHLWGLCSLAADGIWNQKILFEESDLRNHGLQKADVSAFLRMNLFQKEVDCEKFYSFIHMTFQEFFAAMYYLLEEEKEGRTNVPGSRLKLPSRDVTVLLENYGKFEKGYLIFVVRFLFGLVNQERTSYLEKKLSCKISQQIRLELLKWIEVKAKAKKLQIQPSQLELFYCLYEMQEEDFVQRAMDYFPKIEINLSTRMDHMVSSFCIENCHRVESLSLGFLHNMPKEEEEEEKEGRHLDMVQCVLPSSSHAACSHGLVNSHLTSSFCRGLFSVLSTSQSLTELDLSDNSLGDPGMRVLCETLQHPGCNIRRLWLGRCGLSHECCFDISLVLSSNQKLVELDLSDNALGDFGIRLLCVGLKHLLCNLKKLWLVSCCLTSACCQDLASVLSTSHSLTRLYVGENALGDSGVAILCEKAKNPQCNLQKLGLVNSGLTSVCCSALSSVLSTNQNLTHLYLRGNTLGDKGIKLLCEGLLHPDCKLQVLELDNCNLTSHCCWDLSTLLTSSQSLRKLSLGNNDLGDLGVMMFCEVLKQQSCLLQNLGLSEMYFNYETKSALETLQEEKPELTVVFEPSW

Cc1cc(N[C@@H]2CCCN(C)C2)nnc1-c1ccc(SC(F)(F)F)cc1O (racemic) [Compound 11, rac-(R2-(4-Methyl-6-((1-methylpiperidin-3-yl)amino)pyridazin-3-yl)-5-( (trifluoromethyl)thio)phenol]
EC50: 2.47 nM

OCCN1CCC[C@@H](Nc2nnc(-c3ccc(C(F)(F)F)cc3O)c3c2CCCC3)C1 (racemic) [Compound 19, rac-(R)-2-(4-(1-(2-Hydroxyethyl)piperidin-3-yl)amino)-5,6,7,8-tetrahydrophthalazin-1-yl)-5-(trifluoromethyl)phenol]
EC50: 4.99 nM

CN1CCC[C@@H](Nc2nnc(-c3c(O)cccc3F)c3c2CCC3)C1 (racemic) [Compound 20, rac-3-Fluoro-2-(4-((R)-1-methylpiperidin-3-yl)amino)-6,7-dihydro-5H-cyclopenta[d]pyridazin-1-yl)phenol]
EC50: 1.23 nM

OCCN1CCC[C@@H](Nc2nnc(-c3ccc(C(F)(F)F)cc3O)c3c2COC3)C1 (racemic) [Compound 32, rac-(R)-2-(4-(1-(2-Hydroxyethyl)piperidin-3-yl)amino)-5,7-dihydrofuro[3,4-d]pyridazin-1-yl)-5-(trifluoromethyl)phenol]
EC50: 0.71 nM

Cc1cc(N[C@@H]2CCCN(CCO)C2)nnc1-c1ccc(C2CC2)cc1O (racemic) [Compound 36, rac-(R)-5-Cyclopropyl-2-(6-((1-(2-hydroxyethyl)piperidin-3-yl)amino)-4-methylpyridazin-3-yl)phenol]
EC50: 127 nM

Cc1cc(N[C@@H]2CCCN(C)C2)nnc1-c1ccc2c(c1O)CCC2 [Compound 4, (R)-5-(4-Methyl-6-((1-methylpiperidin-3-yl)amino)pyridazin-3-yl)-2,3-dihydro-1H-inden-4-ol]
EC50: 1.91 nM

Cc1cc(N[C@@H]2CCCN(C)C2)nnc1-c1cc2ccccc2cc1O [Compound 5, (R)-3-(4-Methyl-6-((1-methylpiperidin-3-yl)amino)pyridazin-3-yl)naphthalen-2-ol]
EC50: 41.8 nM

Cc1cc(N[C@@H]2CCCN(C)C2)nnc1-c1cc2c(cc1O)CCC2 [Compound 6, (R)-6-(4-Methyl-6-((1-methylpiperidin-3-yl)amino)pyridazin-3-yl)-2,3-dihydro-1H-inden-5-ol]
EC50: 18.7 nM

Cc1cc(N[C@@H]2CCCN(C)C2)nnc1-c1c(O)ccc2c1CCC2 [Compound 7]
EC50: 22.6 nM

Cc1cc(N[C@@H]2CCCN(C)C2)nnc1-c1ccc(C(F)(F)F)cc1C(F)F [Compound 8, (R)-6-(2-(Difluoromethyl)-4-(trifluoromethyl)phenyl)-5-methyl-N-(1-methylpiperidin-3-yl)pyridazin-3-amine]
EC50: 4.31 nM

Cc1cc(N[C@@H]2CCCN(C)C2)nnc1-c1cc2ccccc2cc1O [Compound 9, (R)-3-(4-Methyl-6-((1-methylpiperidin-3-yl)amino)pyridazin-3-yl)naphthalen-2-ol]
EC50: 41.8 nM

CN1CCC[C@@H](Nc2ccc(-c3c(O)ccc4ccccc34)nn2)C1 [Compound 10, (R)-1-(6-((1-Methylpiperidin-3-yl)amino)pyridazin-3-yl)naphthalen-2-ol]
EC50: 48.2 nM

Cc1cc(N[C@@H]2CCCN(C)C2)nnc1-c1ccncc1O [Compound 13, (R)-4-(4-Methyl-6-((1-methylpiperidin-3-yl)amino)pyridazin-3-yl)pyridin-3-ol]
EC50: 129 nM

Cc1cc(N[C@H]2C[C@@](C)(O)C2)nnc1-c1ccc2c(c1O)CCC2 [Compound 14]
EC50: 2.38 nM

C[C@]1(O)C[C@@H](Nc2nnc(-c3ccc(C(F)(F)F)cc3O)c3ccccc23)C1 [Compound 15]
EC50: 4.25 nM

Cc1cc(N[C@@H]2CCCN(C)C2)nnc1-c1c(O)ccc2c1CCC2 [Compound 17]
EC50: 14.4 nM

Cc1c(N[C@H]2C[C@@](C)(O)C2)nnc(-c2ccc3c(c2O)CCC3)c1C [Compound 21]
EC50: 4.62 nM

C[C@]1(O)C[C@@H](Nc2nnc(-c3ccc(C(F)(F)F)cc3O)c3ncccc23)C1 [Compound 22]
EC50: 35.5 nM

C[C@]1(O)C[C@@H](Nc2nnc(-c3ccc(C(F)(F)F)cc3O)c3cccnc23)C1 [Compound 23]
EC50: 2.51 nM

C[C@]1(O)C[C@@H](Nc2nnc(-c3ccc(C(F)(F)F)cc3O)c3ccncc23)C1 [Compound 24]
EC50: 0.68 nM

C[C@]1(O)C[C@@H](Nc2nnc(-c3ccc(C(F)(F)F)cc3O)c3cnccc23)C1 [Compound 25]
EC50: 12.8 nM

Cc1cc(N[C@@H]2CCCN(C)C2)nnc1-c1ccc2c(c1O)CCCC2 [Compound 27]
EC50: 4.75 nM

Cc1cc(N[C@H]2C[C@@](C)(O)C2)nnc1-c1ccc(C2CC2)cc1O [Compound 28]
EC50: 17.4 nM

Cc1c(N[C@H]2C[C@@](C)(O)C2)nnc(-c2ccc(C3CC3)cc2O)c1C [Compound 29]
EC50: 37.2 nM

C[C@]1(O)C[C@@H](Nc2nnc(-c3ccc(C4CC4)cc3O)c3ccccc23)C1 [Compound 30]
EC50: 13.4 nM

C[C@]1(O)C[C@@H](Nc2nnc(-c3ccc4c(c3O)CCC4)c3ccccc23)C1 [Compound 31]
EC50: 1.08 nM

C[C@]1(O)C[C@@H](Nc2nnc(-c3c(O)cc(C(F)(F)F)cc3F)c3ccncc23)C1 [Compound 33]
EC50: 22 nM

C[C@]1(O)C[C@@H](Nc2nnc(-c3c(O)cc(C(F)(F)F)cc3F)c3cnccc23)C1 [Compound 34]
EC50: 27 nM

CN1CCC[C@@H](Nc2nnc(-c3c(O)cc(C(F)(F)F)cc3F)c3c2COC3)C1 [Compound 35]
EC50: 1.4 nM

Cc1cc(N[C@H]2C[C@@](C)(O)C2)nnc1-c1cc(F)c2c(c1O)CCC2 [Compound 37]
EC50: 60 nM

C[C@]1(O)C[C@@H](Nc2nnc(-c3ccc4c(c3O)CCC4)c3cccnc23)C1 [Compound 38]
EC50: 3 nM

C[C@]1(O)C[C@@H](Nc2nnc(-c3ccc4c(c3O)CCC4)c3ccncc23)C1 [Compound 39]
EC50: 1 nM

C[C@]1(O)C[C@@H](Nc2nnc(-c3ccc4c(c3O)CCC4)c3cnccc23)C1 [Compound 40]
EC50: 1.1 nM

C[C@]1(O)C[C@@H](Nc2nnc(-c3ccc(C4CC4)cc3O)c3ccncc23)C1 [Compound 41]
EC50: 27 nM

C[C@]1(O)C[C@@H](Nc2nnc(-c3ccc(C(F)(F)F)cc3O)c3c2COCC3)C1 [Compound 42]
EC50: 20 nM

C[C@]1(O)C[C@@H](Nc2nnc(-c3ccc(C(F)(F)F)cc3O)c3c2CCOC3)C1 [Compound 43]
EC50: 20 nM

C[C@]1(O)C[C@@H](Nc2nnc(-c3c(O)cc(C(F)(F)F)cc3F)c3ccccc23)C1 [Compound 44]
EC50: 24 nM

Cc1cc(C(F)(F)F)cc(O)c1-c1nnc(N[C@H]2C[C@@](C)(O)C2)c2cnccc12 [Compound 45]
EC50: 4.9 nM

Cc1cc(C(F)(F)F)cc(O)c1-c1nnc(N[C@H]2C[C@@](C)(O)C2)c2ccccc12 [Compound 46]
EC50: 10.1 nM

Cc1cc(C(F)(F)F)cc(O)c1-c1nnc(N[C@@H]2CCCN(C)C2)c2c1COC2 [Compound 47]
EC50: 32.2 nM
